Laboratory results from PubChem BioAssay (NCI).
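Method: 48-hour compound exposure of cells in 96-well plates, five concentrations, linear interpolation of endpoints. Here, GI50 denotes the concentration required for 50% inhibition of growth. At the TGI there is no net growth.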

Tests used:
Assay in all cases: NCI-60 cell line screen, 48 h
RPMI-8226 leukemia = system: RPMI-8226 leukemia
MOLT-4 leukemia = system: MOLT-4 leukemia
SK-MEL-5 melanoma = system: SK-MEL-5 melanoma
SF-539 CNS = system: SF-539 CNS
HCT-15 colon = system: HCT-15 colon
SNB-19 CNS = system: SNB-19 CNS
PC-3 prostate = system: PC-3 prostate
HCC-2998 colon = system: HCC-2998 colon
HL-60(TB) leukemia = system: HL-60(TB) leukemia
BT-549 breast = system: BT-549 breast
DU-145 prostate = system: DU-145 prostate
HOP-62 NSCLC = system: HOP-62 NSCLC
HOP-92 NSCLC = system: HOP-92 NSCLC
SR leukemia = system: SR leukemia
MDA-MB-231 breast = system: MDA-MB-231 breast
U251 CNS = system: U251 CNS
SK-MEL-28 melanoma = system: SK-MEL-28 melanoma
UACC-257 melanoma = system: UACC-257 melanoma
KM12 colon = system: KM12 colon
CAKI-1 renal = system: CAKI-1 renal
UO-31 renal = system: UO-31 renal
OVCAR-5 ovarian = system: OVCAR-5 ovarian
NCI-H226 lung = system: NCI-H226 lung
786-0 renal = system: 786-0 renal
MALME-3M melanoma = system: MALME-3M melanoma
MDA-MB-435 = system: MDA-MB-435
T-47D breast = system: T-47D breast
A549 NSCLC = system: A549 NSCLC
SF-295 CNS = system: SF-295 CNS
OVCAR-8 ovarian = system: OVCAR-8 ovarian
COLO 205 colon = system: COLO 205 colon
NCI-H23 lung = system: NCI-H23 lung
SW-620 colon = system: SW-620 colon
CCRF-CEM leukemia = system: CCRF-CEM leukemia
OVCAR-4 ovarian = system: OVCAR-4 ovarian
SN12C renal = system: SN12C renal
SF-268 CNS = system: SF-268 CNS
M14 melanoma = system: M14 melanoma
HS 578T breast = system: HS 578T breast
NCI-H460 lung = system: NCI-H460 lung
NCI-H522 lung = system: NCI-H522 lung
NCI/ADR-RES ovarian = system: NCI/ADR-RES ovarian
A498 renal = system: A498 renal
HT29 colon = system: HT29 colon
K-562 leukemia = system: K-562 leukemia
SK-MEL-2 melanoma = system: SK-MEL-2 melanoma
IGROV1 ovarian = system: IGROV1 ovarian
EKVX NSCLC = system: EKVX NSCLC
SK-OV-3 ovarian = system: SK-OV-3 ovarian
ACHN renal = system: ACHN renal
UACC-62 melanoma = system: UACC-62 melanoma
OVCAR-3 ovarian = system: OVCAR-3 ovarian
LOX IMVI melanoma = system: LOX IMVI melanoma
MCF7 breast = system: MCF7 breast
TK-10 renal = system: TK-10 renal

Cc1ccc(S(=O)(=O)NCCCNc2nc(Nc3ccc(N4CCN(C)CC4)cc3)nc3ccsc23)cc1
GI50 (RPMI-8226 leukemia): 2.5 µM | TGI (RPMI-8226 leukemia): 8.04 µM | GI50 (MOLT-4 leukemia): 3.43 µM | TGI (MOLT-4 leukemia): 28.7 µM | GI50 (SK-MEL-5 melanoma): 12.9 µM | TGI (SK-MEL-5 melanoma): 25.6 µM | GI50 (SF-539 CNS): 2.16 µM | TGI (SF-539 CNS): 5.78 µM | GI50 (HCT-15 colon): 2.07 µM | TGI (HCT-15 colon): 5.54 µM | GI50 (SNB-19 CNS): 15.9 µM | TGI (SNB-19 CNS): 32.4 µM | GI50 (PC-3 prostate): 5.55 µM | TGI (PC-3 prostate): 21.6 µM | GI50 (HCC-2998 colon): 5.34 µM | TGI (HCC-2998 colon): 17.8 µM | GI50 (HL-60(TB) leukemia): 2.01 µM | TGI (HL-60(TB) leukemia): 5.18 µM | GI50 (BT-549 breast): 3.56 µM | TGI (BT-549 breast): 16.4 µM | GI50 (DU-145 prostate): 16.4 µM | TGI (DU-145 prostate): 40.6 µM | GI50 (HOP-62 NSCLC): 14.8 µM | TGI (HOP-62 NSCLC): 30.5 µM | GI50 (HOP-92 NSCLC): 1.94 µM | TGI (HOP-92 NSCLC): 11.6 µM | GI50 (SR leukemia): 2.84 µM | TGI (SR leukemia): > 100 µM | GI50 (MDA-MB-231 breast): 3.92 µM | TGI (MDA-MB-231 breast): 18.7 µM | GI50 (U251 CNS): 3.83 µM | TGI (U251 CNS): 18.7 µM | GI50 (SK-MEL-28 melanoma): 6.5 µM | TGI (SK-MEL-28 melanoma): 19.4 µM | GI50 (UACC-257 melanoma): 2.19 µM | TGI (UACC-257 melanoma): 5.83 µM | GI50 (KM12 colon): 14.3 µM | TGI (KM12 colon): 47.9 µM | GI50 (CAKI-1 renal): 12.8 µM | TGI (CAKI-1 renal): 25.5 µM | GI50 (UO-31 renal): 7.94 µM | TGI (UO-31 renal): 23.8 µM | GI50 (OVCAR-5 ovarian): 11.9 µM | TGI (OVCAR-5 ovarian): 25.9 µM | GI50 (NCI-H226 lung): 8.46 µM | TGI (NCI-H226 lung): 21.8 µM | GI50 (786-0 renal): 1.77 µM | TGI (786-0 renal): 3.42 µM | GI50 (MALME-3M melanoma): 1.79 µM | TGI (MALME-3M melanoma): 3.42 µM | GI50 (MDA-MB-435): 9.14 µM | TGI (MDA-MB-435): 21.3 µM | GI50 (T-47D breast): 13.3 µM | TGI (T-47D breast): 37.2 µM | GI50 (A549 NSCLC): 14.9 µM | TGI (A549 NSCLC): 31.5 µM | GI50 (SF-295 CNS): 9.03 µM | TGI (SF-295 CNS): 21.6 µM | GI50 (OVCAR-8 ovarian): 10.9 µM | TGI (OVCAR-8 ovarian): 29.7 µM | GI50 (COLO 205 colon): 13.1 µM | TGI (COLO 205 colon): 29.8 µM | GI50 (NCI-H23 lung): 12.2 µM | TGI (NCI-H23 lung): 26.5 µM | GI50 (SW-620 colon): 12.5 µM | TGI (SW-620 colon): 28 µM | GI50 (CCRF-CEM leukemia): 2.73 µM | TGI (CCRF-CEM leukemia): 22.9 µM | GI50 (OVCAR-4 ovarian): 10.3 µM | TGI (OVCAR-4 ovarian): 44.2 µM | GI50 (SN12C renal): 13.6 µM | TGI (SN12C renal): 28 µM | GI50 (SF-268 CNS): 9.87 µM | TGI (SF-268 CNS): 46 µM | GI50 (M14 melanoma): 1.6 µM | TGI (M14 melanoma): 3.13 µM | GI50 (HS 578T breast): 5.09 µM | TGI (HS 578T breast): 26.7 µM | GI50 (NCI-H460 lung): 13 µM | TGI (NCI-H460 lung): 27.8 µM | GI50 (NCI-H522 lung): 12.5 µM | TGI (NCI-H522 lung): 26.2 µM | GI50 (NCI/ADR-RES ovarian): 15.5 µM | TGI (NCI/ADR-RES ovarian): 41.9 µM | GI50 (A498 renal): 19.4 µM | TGI (A498 renal): 34.5 µM | GI50 (HT29 colon): 4.4 µM | TGI (HT29 colon): 18.4 µM | GI50 (K-562 leukemia): 2.56 µM | TGI (K-562 leukemia): > 100 µM | GI50 (SK-MEL-2 melanoma): 15.1 µM | TGI (SK-MEL-2 melanoma): 29 µM | GI50 (IGROV1 ovarian): 7.35 µM | TGI (IGROV1 ovarian): 21.8 µM | GI50 (EKVX NSCLC): 11.6 µM | TGI (EKVX NSCLC): 28.7 µM | GI50 (SK-OV-3 ovarian): 27.1 µM | TGI (SK-OV-3 ovarian): 77.8 µM | GI50 (ACHN renal): 12 µM | TGI (ACHN renal): 25.2 µM | GI50 (UACC-62 melanoma): 11.5 µM | TGI (UACC-62 melanoma): 23.6 µM | GI50 (OVCAR-3 ovarian): 10.2 µM | TGI (OVCAR-3 ovarian): 42.1 µM | GI50 (LOX IMVI melanoma): 1.51 µM | TGI (LOX IMVI melanoma): 3.06 µM | GI50 (MCF7 breast): 3.52 µM | TGI (MCF7 breast): 13.8 µM | GI50 (TK-10 renal): 17.7 µM | TGI (TK-10 renal): 40.3 µM
